From US8722729B2, “Unsaturated fatty acid monoesters and diesters on ascorbic acid and cosmetic uses thereof” (Pierre Fabre Dermo-Cosmetique, priority 2009, dated 2014)
Entries after “also recorded” stand apart in the source; their conditions may differ.

Key:
[1] = biological target: T1, hyaluronidase of bovine origin (BTH, Bovine Testis hyaluronidase) (Bos taurus, UniProt Q2YDK3); experiment: Assay of hyaluronidase activity (residual HA, HA-ELISA); assay type: biochemical
T1 sequence (Q2YDK3 1-553): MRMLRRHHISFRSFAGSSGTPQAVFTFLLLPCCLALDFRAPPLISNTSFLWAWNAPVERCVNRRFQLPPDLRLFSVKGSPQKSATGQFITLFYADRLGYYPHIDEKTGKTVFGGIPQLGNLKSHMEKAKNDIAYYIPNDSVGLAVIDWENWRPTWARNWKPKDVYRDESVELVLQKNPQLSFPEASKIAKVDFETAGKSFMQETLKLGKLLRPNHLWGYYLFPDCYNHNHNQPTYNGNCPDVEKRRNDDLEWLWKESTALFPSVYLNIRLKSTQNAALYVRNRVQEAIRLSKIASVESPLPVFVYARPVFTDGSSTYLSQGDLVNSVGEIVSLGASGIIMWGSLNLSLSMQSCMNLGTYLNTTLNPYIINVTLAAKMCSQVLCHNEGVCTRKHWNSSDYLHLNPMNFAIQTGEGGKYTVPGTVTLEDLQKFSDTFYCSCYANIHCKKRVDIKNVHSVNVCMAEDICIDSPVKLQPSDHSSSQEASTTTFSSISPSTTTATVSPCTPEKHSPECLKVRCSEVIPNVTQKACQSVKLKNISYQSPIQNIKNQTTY
Protocol: Hyaluronidase activity is measured by the assay of residual hyaluronic acid (HA). The substrate is fixed to a carrier then placed in the presence of an enzyme and a quantity of compound to be tested. The residual HA i.e. the non-hydrolyzed HA is assayed using a HA-Elisa detection system: Hyaluronan enzyme-linked immunosorbent assay (Echelon Biosciences®).
0.5 units of hyaluronidase of bovine origin (BTH, Bovine Testis hyaluronidase) were pre-incubated at 37° C. with the compound to be tested. This mixture was deposited on the HA fixed to the surface of a microplate well. The enzymatic reaction took place at pH 7.2n at 37° C. Washing was followed by a recognition step of residual HA by hyaluronectin (NH). The quantity of bonded NH was measured by ELISA using an anti-NH antibody conjugated with alkaline phosphatase. The p-nitrophenyl phosphate disodium salt (pnNpp) substrate of the phosphatase allows spectrometric detection at 405 nm. (Delpech B et al., Analytical Biochemistry 149, 555(565 (1985); Robert Stern et al. Analytical Biochemistry 251, 263-269 (1997)). OD intensity was correlated with the quantity of residual HA. The quantity of residual HA is directly linked to enzymatic activity. In the presence of an inhibitor, the larger the quantity of residual HA the more the sample is inhibiting. A percentage inhibition of hyaluronidase will be expressed.
Therefore the net enzymatic activities were calculated which represent the difference in mean gross activity without enzyme and the gross activity of the enzyme with or without the compound to be tested.
The percentage enzymatic inhibition related to the compound to be tested was calculated as follows: % inhibition=(Maximum net enzymatic activity)−Net enzymatic activity in the presence of the compound to be tested)/Maximum net enzymatic activity.
where the maximum net enzymatic activity represents the mean net enzymatic activity of 0.5 U.

[2] = system: Human dermal papilla cells; experiment: In vitro stimulation of the proliferation of dermal papilla cells (BrdU incorporation); assay type: cell-based
Protocol: Human dermal papilla cells (Promocell) were placed in culture and held in early passage culture in DMEM medium supplemented with 10% FCS. They were then seeded in a 96-well plate in DMEM medium supplemented with 10% FCS for 12 h. The culture medium was replaced by serum-free DMEM medium then by DMEM supplemented with 1% FCS and molecules 1, 2, 3 and 4 at the different tested concentrations After incubation for 60 h, cell proliferation was evaluated by incorporation of BrdU.
The diagrams in appended FIG. 1 show the increase in BrdU incorporation and the stimulated cellular proliferation of the cells in the presence of the different molecules (as a percent of the control).

[3] = system: B16-F10 cells; experiment: Assay of melanin in B16-F10 cells (colorimetric, α-MSH stimulated); assay type: cell-based, murine; conditions: for inhibition at 10 µM / inhibition at 20 µM / IC50 / inhibition at 50 µM / inhibition at 100 µM: Mus musculus; for inhibition at 10 µM / inhibition at 20 µM / inhibition at 50 µM / inhibition at 100 µM: B16-F10, 72 hours, read-out: Percentage inhibition of intracellular melanin; for IC50: B16-F10, α-MSH stimulated, read-out: IC50 intracellular melanin
Protocol: Similarly, to evidence the depigmenting activity of the compounds of general formula (I) according to the invention, the effect of these compounds was measured on the synthesis of melanin by colorimetric assay on a cell line of murine melanomas: line B16-F10.
This is a test to measure the synthesis of melanin by colorimetric assay on a cell line of murine melanomas: line B16-F10. This test allows the evaluation of the depigmenting property of active ingredients.
The B16-F10 cells were seeded onto 96-well plates in DMEM medium supplemented with FCS (fetal calf serum) and incubated 24 hours at 37° C., 5% CO2. The cells were then stimulated with α-MSH (to stimulate the synthesis of melanin, the stimulation observed was about 150%) and treated 72 hours with the active ingredients to be tested. Each concentration of active ingredient was tested at least in triplicate. Total melanin followed by intracellular melanin dissolved in lysis buffer were then assayed by absorbency reading at 405 nm. The total proteins were determined in the lysate and the results are expressed in mg melanin/mg proteins. The percentage activity was calculated as follows: […]
A negative value indicates an inhibition, whereas a positive value indicates induced synthesis of melanin.

[4] = system: human hair follicle; experiment: Stimulation of the growth of the human hair follicle (Philpott culture); assay type: cell-based; conditions: 15 μM; for D4 % activity (hair growth stimulation compared with the control) / D4 % growth: 4 days' culture; for D8 % activity (hair growth stimulation compared with the control) / D8 % growth: 8 days' culture
Protocol: (§1) Biopsies of the occipital region of a human scalp were obtained from operative waste. The hair follicles were isolated by micro-dissection under binocular magnification. They were individually placed in culture following Philpott's technique (Philpott M P et al, J Cell Sci. 97:463-471, 1990). The hair follicles in anagen phase were incubated in 24-well culture dishes in the presence of William's medium supplemented with 10 μg/mL Insulin, 10 μg/mL Transferrin, 10 ng/mL Hydrocortisone, 1 mM Glutamax I, 100 U/mL Penicillin, 100 μg/mL Streptomycin, 250 ng/mL Amphotericin B and in the presence of molecules 3 or 4 for 11 days. The incubation medium was regularly renewed. The lengthening (in μm) of each hair follicle was measured at 4 and 8 days' culture in captured images of the hair follicles.
The diagrams in appended FIG. 2 show the effect of molecules 3 and 4 on the lengthening of hair follicles after incubation for 4 days and for 8 days.
The following table (Table 5) gives the growth percentages obtained for each treatment condition and the percentages for stimulated hair growth obtained with molecules 3 and 4 compared with the control.

[5] = system: human hair follicle; experiment: Evaluation of hair bulb degeneration (apoptotic follicles at D11); assay type: cell-based
Protocol: as §1
The degeneration of the follicle when kinetics cease after 11 culture days, is evaluated by observation of morphological damage of the hair bulb (rounding, deformation). The percentage apoptosis is calculated by counting the number of apoptotic hair follicles relative to the total number of follicles

[6] = 0.5 U BTH, read-out: Enzymatic inhibition (mean as a percentage)

| inhibition at 10 µM [1, 6] | inhibition at 50 µM [1, 6] | IC50 [3] | SMILES | Effect on hyaluronidase [1] | Proliferation of dermal papilla cells [2] | Inhibition of the synthesis of intracellular melanin compared with vitamin C [3] | inhibition at 10 µM [3] | inhibition at 20 µM [3] | D4 % activity (hair growth stimulation compared with the control) [4] | D4 % growth [4] | D8 % activity (hair growth stimulation compared with the control) [4] | D8 % growth [4] | inhibition at 50 µM [3] | inhibition at 100 µM [3] | other results |
| --- | --- | --- | --- | --- | --- | --- | --- | --- | --- | --- | --- | --- | --- | --- | --- |
| 31% | 71% |  | CCCCCCCCCCCCCCCC(=O)OC[C@H](O)[C@H]1OC(=O)C(O)=C1O [6-ascorbyl palmitate, reference compound] | advantageously inhibits hyaluronidase, from 10 to 250 μM, with dose effect |  |  |  |  |  |  |  |  |  |  | inhibition at 25 µM ([1]; 25 μM, 0.5 U BTH, read-out: Enzymatic inhibition (mean as a percentage)): 57%; inhibition at 100 µM ([1]; 100 μM, 0.5 U BTH, read-out: Enzymatic inhibition (mean as a percentage)): 73%; inhibition at 200 µM ([1]; 200 μM, 0.5 U BTH, read-out: Enzymatic inhibition (mean as a percentage)): 79%; inhibition at 250 µM ([1]; 250 μM, 0.5 U BTH, read-out: Enzymatic inhibition (mean as a percentage)): 112% |
|  |  | 20 µM | CC/C=C\C/C=C\C/C=C\CCCCCCCC(=O)OC1=C(OC(=O)CCCCCCC/C=C\C/C=C\C/C=C\CC)C(C2COC(C)(C)O2)OC1=O (centres unmarked) [Molecule 2, dioctadeca-9,12,15-trienoate of (9Z,9′Z,12Z,12′Z,15Z,15′Z)-2-(2,2-dimethyl-1,3-dioxolan-4-yl)-5-oxo-2,5-dihydrofuran-3,4-diyl] |  | induce proliferation of the cells but to a lesser extent than molecules 1 and 4 | greater than that of vitamin C | 11% | 53% |  |  |  |  |  |  |  |
|  |  | 20 µM | CCCCC/C=C\C/C=C\C/C=C\CCCCC(=O)OC1=C(OC(=O)CCCC/C=C\C/C=C\C/C=C\CCCCC)C(C2COC(C)(C)O2)OC1=O (centres unmarked) [Molecule 3, dioctadeca-6,9,12-trienoate of (6Z,6′Z,9Z,9′Z,12Z,12′Z)-2-(2,2-dimethyl-1,3-dioxolan-4-yl)-5-oxo-2,5-dihydrofuran-3,4-diyl] |  | induce proliferation of the cells but to a lesser extent than molecules 1 and 4 | greater than that of vitamin C | 25% | 50% | 25% | 52% | 18% | 85% |  |  |  |
| 72% | 111% | 53 µM | CCCCCCCC/C=C\CCCCCCCC(=O)OC1=C(OC(=O)CCCCCCC/C=C\CCCCCCCC)C(C2COC(C)(C)O2)OC1=O (centres unmarked) [Molecule 4, dioleate of (Z)-2-(2,2-dimethyl-1,3-dioxolan-4-yl)-5-oxo-2,5-dihydrofuran-3,4-diyl] | strongly inhibit hyaluronidase; also recorded: equivalent to or more active than ascorbyl palmitate |  | greater than that of vitamin C | -16% | 6% | 19% | 51% | 12% | 84% | 44% |  | Number of apoptotic bulbs at D11 (Number of total follicles) ([5]; 15 μM, 11 days of incubation): 6 (12); % apoptosis ([5]; 15 μM, 11 days of incubation, control 75): 50%; Effect on hair degeneration ([5]; 11 days): marked limiting of hair degeneration; Proliferation stimulation of dermal papilla cells ([2]; 6.25 μM, 60 h): 113.9% |
| 31% | 76% | 66 µM | CCCCC/C=C\C/C=C\CCCCCCCC(=O)OC1=C(O)C(C2COC(C)(C)O2)OC1=O (centres unmarked) [Molecule 5, (9Z,12Z)-5-(2,2-dimethyl-1,3-dioxolan-4-yl)-4-hydroxy-2-oxo-2,5-dihydrofuran-3-yl octadeca-9,12-dienoate] | strongly inhibit hyaluronidase; also recorded: equivalent to or more active than ascorbyl palmitate |  | greater than that of vitamin C | 4% | 13% |  |  |  |  | 35% | 78% |  |
| 34% | 106% | 105 µM | CCCCCCCC/C=C\CCCCCCCC(=O)OC1=C(O)C(C2COC(C)(C)O2)OC1=O (centres unmarked) [Molecule 6, 5-(2,2-dimethyl-1,3-dioxolan-4-yl)-4-hydroxy-2-oxo-2,5-dihydrofuran-3-yl oleate] | strongly inhibit hyaluronidase; also recorded: equivalent to or more active than ascorbyl palmitate |  | greater than that of vitamin C |  |  |  |  |  |  | 7% | 49% |  |
